Key:
[1] = Stability in solution as a function of pH; type: physicochemical
[2] = test system: human lung carcinoma (LX-1); assay: Human tumor clonogenic (stem cell) assay, lung carcinoma; type: cell-based; settings: for T/C (treated/control colonies): Lung Carcinoma
Method: (§1) This test was performed essentially by the method of A. Hamburger and S. Salmon, Primary bioassay of human tumor stem cells., Science, 197: 461-463 (1977). Human colon carcinoma (CX-1) and human lung carcinoma (LX-1) tumors were obtained from the National Cancer Institute and propagated in athymic Balb/c mice. Freshly removed tumors were dispersed with trypsin 0.25% and 5×10^4 lung carcinoma cells or 1×10^5 colon carcinoma cells in soft (0.3%) agarose medium containing 0.1 ml of test drug were plated onto a solidified (0.5%) agarose base medium in 35 mm grided dishes. Cultures were incubated at 37° C. in a humidified 5% carbon dioxide in air atmosphere. Colonies were counted after 10-11 days. A compound is considered active if the treated/control (T/C) value is ≤30%, representing a 70% cell kill.

[3] = test system: human colon carcinoma (CX-1); assay: Human tumor clonogenic (stem cell) assay, colon carcinoma; type: cell-based
Method: as §1

Stability in solution ([1]; below pH 5.0): Decomposes rapidly
Stability in solution ([1]; weakly basic solutions): stable
Compound: C[C@H](N)C(=O)N[C@@H](COC(=O)C=[N+]=[N-])C(=O)O [LL-D05139β, N-L-alanyl-L-serine diazoacetate]
T/C (treated/control colonies) ([2]; concentration 2 mgc/ml): 23.2%
T/C (treated/control colonies) ([2]; concentration 20 mgc/ml): 17.8%
T/C (treated/control colonies) ([2]; concentration 200 mgc/ml): 13.0%
Activity in human tumor clonogenic assay (active if T/C ≤30%) ([2]; human lung (LX-1) carcinoma, at 2.0 mcg/ml and higher doses): active
T/C (treated/control colonies) ([3]; Colon Carcinoma, concentration 2 mgc/ml): 16.0%
Activity in human tumor clonogenic assay (active if T/C ≤30%) ([3]; colon (CX-1) carcinoma, at 2.0 mcg/ml and higher doses): active

From patent US4568646A, “Preparation of antibiotic LL-D05139β from cultures of Glycomyces harbinensis, gen. nov., sp. nov” (American Cyanamid Company, priority 1985, dated 1986)
